Legend:
[1] = target: MEK1 (Homo sapiens (Human), UniProt Q02750); assay: MEK family profiling ADP-Glo, MEK1; type: biochemical; conditions: Erk2 substrate; 0.6 μM ATP; read-out: IC50 MEK isoform 1
[2] = target: MEK3 (Homo sapiens (Human), UniProt P46734); assay: MEK family profiling ADP-Glo, MEK3; type: biochemical; conditions: p38α substrate; 0.6 μM ATP; read-out: IC50 MEK isoform 3
[3] = target: T1, MEK5 (Homo sapiens (Human), UniProt Q13163); assay: MEK family profiling ADP-Glo, MEK5; type: biochemical; conditions: Erk5 substrate; 0.6 μM ATP; read-out: IC50 MEK isoform 5
T1 sequence (Q13163 whole entry, canonical isoform): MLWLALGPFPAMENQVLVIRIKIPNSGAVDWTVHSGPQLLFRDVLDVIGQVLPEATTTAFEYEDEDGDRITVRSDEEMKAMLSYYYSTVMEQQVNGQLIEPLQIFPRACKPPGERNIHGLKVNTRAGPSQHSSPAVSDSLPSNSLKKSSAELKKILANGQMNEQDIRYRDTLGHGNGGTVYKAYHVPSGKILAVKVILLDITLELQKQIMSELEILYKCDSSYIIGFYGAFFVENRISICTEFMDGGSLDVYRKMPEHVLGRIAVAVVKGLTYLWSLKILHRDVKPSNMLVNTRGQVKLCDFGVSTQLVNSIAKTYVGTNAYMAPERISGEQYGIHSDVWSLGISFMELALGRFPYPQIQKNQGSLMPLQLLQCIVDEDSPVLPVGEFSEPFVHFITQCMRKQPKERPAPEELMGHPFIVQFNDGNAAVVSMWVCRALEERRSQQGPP

[4] = target: T2, MEK6 (Homo sapiens (Human), UniProt P52564); assay: MEK family profiling ADP-Glo, MEK6; type: biochemical; conditions: p38α substrate; 0.6 μM ATP; read-out: IC50 MEK isoform 6
T2 sequence (P52564 whole entry, canonical isoform): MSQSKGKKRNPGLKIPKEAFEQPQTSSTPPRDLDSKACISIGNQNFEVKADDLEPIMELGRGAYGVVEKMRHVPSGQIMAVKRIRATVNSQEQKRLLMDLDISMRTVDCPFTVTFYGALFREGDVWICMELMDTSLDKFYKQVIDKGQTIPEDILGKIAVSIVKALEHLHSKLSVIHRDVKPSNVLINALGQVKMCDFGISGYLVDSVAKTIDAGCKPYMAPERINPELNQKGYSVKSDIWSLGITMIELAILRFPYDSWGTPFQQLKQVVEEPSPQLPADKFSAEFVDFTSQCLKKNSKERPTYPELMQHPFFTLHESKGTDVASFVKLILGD

[5] = target: AAK1 (Homo sapiens (Human), UniProt Q2M2I8); assay: KINOMEscan binding assay; conditions: percent of control
[6] = target: ABL1(T3151)-phosphorylated (Homo sapiens (Human), UniProt P00519, T315I); assay: KINOMEscan binding assay; conditions: percent of control
[7] = target: ABL1-phophorylated (Homo sapiens (Human), UniProt P00519); assay: KINOMEscan binding assay; conditions: percent of control
[8] = target: ALK(L1196M) (Homo sapiens (Human), UniProt Q9UM73, L1196M); assay: KINOMEscan binding assay; conditions: percent of control
[9] = target: CDK9 (Homo sapiens (Human), UniProt P50750); assay: KINOMEscan binding assay; conditions: percent of control
[10] = target: CHEK2 (Homo sapiens (Human), UniProt O96017); assay: KINOMEscan binding assay; conditions: percent of control
[11] = target: CSNK1G1 (Homo sapiens (Human), UniProt Q9HCP0); assay: KINOMEscan binding assay; conditions: percent of control
[12] = target: CSML2A1 (Homo sapiens (Human), UniProt P68400); assay: KINOMEscan binding assay; conditions: percent of control
[13] = target: DMPK (Homo sapiens (Human), UniProt Q09013); assay: KINOMEscan binding assay; conditions: percent of control
[14] = target: EGFR(L747-S752DEL, P753S) (Homo sapiens (Human), UniProt P00533, DEL747-752/P753S); assay: KINOMEscan binding assay; conditions: percent of control
[15] = target: EPHA2 (Homo sapiens (Human), UniProt P29317); assay: KINOMEscan binding assay; conditions: percent of control
[16] = target: EPHB4 (Homo sapiens (Human), UniProt P54760); assay: KINOMEscan binding assay; conditions: percent of control
EPHB4, sequence (P54760 16-987): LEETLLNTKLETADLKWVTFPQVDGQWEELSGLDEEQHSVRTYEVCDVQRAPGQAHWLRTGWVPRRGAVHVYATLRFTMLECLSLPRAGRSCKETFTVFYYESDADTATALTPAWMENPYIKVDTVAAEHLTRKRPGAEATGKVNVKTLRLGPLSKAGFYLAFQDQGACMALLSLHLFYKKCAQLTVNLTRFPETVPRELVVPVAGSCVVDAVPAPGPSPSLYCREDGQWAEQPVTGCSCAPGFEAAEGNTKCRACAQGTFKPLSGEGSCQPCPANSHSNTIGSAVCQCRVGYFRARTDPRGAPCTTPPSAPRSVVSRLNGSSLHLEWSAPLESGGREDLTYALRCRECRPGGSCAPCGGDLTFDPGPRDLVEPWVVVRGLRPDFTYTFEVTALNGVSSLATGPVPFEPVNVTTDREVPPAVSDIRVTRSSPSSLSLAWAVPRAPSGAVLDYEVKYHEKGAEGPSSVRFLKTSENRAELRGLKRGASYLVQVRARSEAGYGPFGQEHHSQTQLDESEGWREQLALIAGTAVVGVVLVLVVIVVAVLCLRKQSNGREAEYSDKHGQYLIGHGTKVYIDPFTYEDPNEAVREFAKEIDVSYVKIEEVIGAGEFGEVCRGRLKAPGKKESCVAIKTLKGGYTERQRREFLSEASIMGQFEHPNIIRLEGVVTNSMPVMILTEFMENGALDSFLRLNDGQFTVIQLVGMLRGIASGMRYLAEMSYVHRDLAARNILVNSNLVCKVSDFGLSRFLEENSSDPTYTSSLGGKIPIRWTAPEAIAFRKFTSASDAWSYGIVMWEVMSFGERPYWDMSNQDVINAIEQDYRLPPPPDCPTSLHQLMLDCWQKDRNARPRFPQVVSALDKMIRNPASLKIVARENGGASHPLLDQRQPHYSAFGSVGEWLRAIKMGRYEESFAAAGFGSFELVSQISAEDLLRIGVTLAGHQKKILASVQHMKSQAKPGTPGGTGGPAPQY

[17] = target: FGFR1 (Homo sapiens (Human), UniProt P11362); assay: KINOMEscan binding assay; conditions: percent of control
[18] = target: ICK (Homo sapiens (Human), UniProt Q9UPZ9); assay: KINOMEscan binding assay; conditions: percent of control
ICK, sequence (Q9UPZ9 whole entry): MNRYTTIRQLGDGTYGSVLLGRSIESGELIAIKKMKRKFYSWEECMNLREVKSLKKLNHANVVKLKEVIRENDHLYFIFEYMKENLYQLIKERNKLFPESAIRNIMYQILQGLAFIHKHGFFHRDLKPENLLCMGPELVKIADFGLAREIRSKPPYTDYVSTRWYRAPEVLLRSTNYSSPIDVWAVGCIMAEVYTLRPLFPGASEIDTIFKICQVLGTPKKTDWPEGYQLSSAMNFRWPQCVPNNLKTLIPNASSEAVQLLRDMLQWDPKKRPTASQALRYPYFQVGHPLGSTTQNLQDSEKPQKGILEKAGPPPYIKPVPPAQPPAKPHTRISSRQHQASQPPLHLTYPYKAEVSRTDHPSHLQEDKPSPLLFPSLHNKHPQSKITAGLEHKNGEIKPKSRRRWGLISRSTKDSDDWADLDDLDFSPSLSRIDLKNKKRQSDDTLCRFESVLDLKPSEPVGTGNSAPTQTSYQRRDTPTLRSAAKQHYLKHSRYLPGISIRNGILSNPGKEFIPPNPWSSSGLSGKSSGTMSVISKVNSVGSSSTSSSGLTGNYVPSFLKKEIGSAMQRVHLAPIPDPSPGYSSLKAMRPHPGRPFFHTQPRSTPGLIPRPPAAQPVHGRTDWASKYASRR

[19] = target: IKK-ALPHA (Homo sapiens (Human), UniProt O15111); assay: KINOMEscan binding assay; conditions: percent of control
[20] = target: IKK-EPSILON (Homo sapiens (Human), UniProt Q14164); assay: KINOMEscan binding assay; conditions: percent of control
[21] = target: KIT(L576P) (Homo sapiens (Human), UniProt P10721, L576P); assay: KINOMEscan binding assay; conditions: percent of control
[22] = target: MARK4 (Homo sapiens (Human), UniProt Q96L34); assay: KINOMEscan binding assay; conditions: percent of control
MARK4, sequence (Q96L34 whole entry): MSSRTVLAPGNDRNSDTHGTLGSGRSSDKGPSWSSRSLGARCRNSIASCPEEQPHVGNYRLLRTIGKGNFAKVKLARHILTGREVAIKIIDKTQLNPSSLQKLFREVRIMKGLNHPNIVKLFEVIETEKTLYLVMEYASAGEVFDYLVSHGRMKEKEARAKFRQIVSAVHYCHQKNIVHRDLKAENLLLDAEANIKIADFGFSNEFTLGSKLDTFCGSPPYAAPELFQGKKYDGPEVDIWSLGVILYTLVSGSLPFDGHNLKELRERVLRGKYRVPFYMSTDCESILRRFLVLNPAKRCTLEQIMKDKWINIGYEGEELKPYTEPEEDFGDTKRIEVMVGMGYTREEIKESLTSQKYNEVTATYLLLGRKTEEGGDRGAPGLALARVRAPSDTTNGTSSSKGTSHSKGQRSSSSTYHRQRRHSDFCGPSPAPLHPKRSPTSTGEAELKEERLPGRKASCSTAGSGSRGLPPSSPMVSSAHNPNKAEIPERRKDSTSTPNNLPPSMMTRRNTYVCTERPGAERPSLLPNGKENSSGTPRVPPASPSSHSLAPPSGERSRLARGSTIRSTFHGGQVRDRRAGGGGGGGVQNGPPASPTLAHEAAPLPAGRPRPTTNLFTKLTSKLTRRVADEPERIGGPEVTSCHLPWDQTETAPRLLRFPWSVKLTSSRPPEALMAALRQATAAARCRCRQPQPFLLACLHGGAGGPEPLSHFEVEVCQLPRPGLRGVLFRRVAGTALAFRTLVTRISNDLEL

[23] = target: MEK2 (Homo sapiens (Human), UniProt P36507); assay: KINOMEscan binding assay; conditions: percent of control
[24] = target: T1, MEK5; assay: KINOMEscan binding assay; conditions: percent of control
[25] = target: T2, MEK6; assay: KINOMEscan binding assay; conditions: percent of control
[26] = target: MKK7 (Homo sapiens (Human), UniProt O14733); assay: KINOMEscan binding assay; conditions: percent of control
MKK7, sequence (O14733 whole entry): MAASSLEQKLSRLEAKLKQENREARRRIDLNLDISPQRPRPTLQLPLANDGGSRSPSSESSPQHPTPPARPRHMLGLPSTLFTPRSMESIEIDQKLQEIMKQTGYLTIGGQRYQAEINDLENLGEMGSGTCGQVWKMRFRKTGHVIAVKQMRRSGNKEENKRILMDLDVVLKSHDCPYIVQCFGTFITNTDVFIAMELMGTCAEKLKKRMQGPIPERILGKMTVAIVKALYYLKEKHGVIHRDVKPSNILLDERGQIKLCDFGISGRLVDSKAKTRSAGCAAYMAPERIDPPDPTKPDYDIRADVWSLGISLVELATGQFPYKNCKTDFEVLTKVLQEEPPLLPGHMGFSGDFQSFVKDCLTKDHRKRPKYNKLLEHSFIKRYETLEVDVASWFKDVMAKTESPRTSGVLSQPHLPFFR

[27] = target: MKNK2 (Homo sapiens (Human), UniProt Q9HBH9); assay: KINOMEscan binding assay; conditions: percent of control
[28] = target: MLK2 (Homo sapiens (Human), UniProt Q02779); assay: KINOMEscan binding assay; conditions: percent of control
[29] = target: MRCKA (Homo sapiens (Human), UniProt Q5VT25); assay: KINOMEscan binding assay; conditions: percent of control
[30] = target: MUSK (Homo sapiens (Human), UniProt O15146); assay: KINOMEscan binding assay; conditions: percent of control
[31] = target: NLK (Homo sapiens (Human), UniProt Q9UBE8); assay: KINOMEscan binding assay; conditions: percent of control
[32] = target: PHKG2 (Homo sapiens (Human), UniProt P15735); assay: KINOMEscan binding assay; conditions: percent of control
[33] = target: PIK4CB (Homo sapiens (Human), UniProt Q9UBF8); assay: KINOMEscan binding assay; conditions: percent of control
[34] = target: PKN2 (Homo sapiens (Human), UniProt Q16513); assay: KINOMEscan binding assay; conditions: percent of control
[35] = target: PRKG1 (Homo sapiens (Human), UniProt Q13976); assay: KINOMEscan binding assay; conditions: percent of control
[36] = target: RAF1 (Homo sapiens (Human), UniProt P04049); assay: KINOMEscan binding assay; conditions: percent of control
RAF1, sequence (P04049 whole entry): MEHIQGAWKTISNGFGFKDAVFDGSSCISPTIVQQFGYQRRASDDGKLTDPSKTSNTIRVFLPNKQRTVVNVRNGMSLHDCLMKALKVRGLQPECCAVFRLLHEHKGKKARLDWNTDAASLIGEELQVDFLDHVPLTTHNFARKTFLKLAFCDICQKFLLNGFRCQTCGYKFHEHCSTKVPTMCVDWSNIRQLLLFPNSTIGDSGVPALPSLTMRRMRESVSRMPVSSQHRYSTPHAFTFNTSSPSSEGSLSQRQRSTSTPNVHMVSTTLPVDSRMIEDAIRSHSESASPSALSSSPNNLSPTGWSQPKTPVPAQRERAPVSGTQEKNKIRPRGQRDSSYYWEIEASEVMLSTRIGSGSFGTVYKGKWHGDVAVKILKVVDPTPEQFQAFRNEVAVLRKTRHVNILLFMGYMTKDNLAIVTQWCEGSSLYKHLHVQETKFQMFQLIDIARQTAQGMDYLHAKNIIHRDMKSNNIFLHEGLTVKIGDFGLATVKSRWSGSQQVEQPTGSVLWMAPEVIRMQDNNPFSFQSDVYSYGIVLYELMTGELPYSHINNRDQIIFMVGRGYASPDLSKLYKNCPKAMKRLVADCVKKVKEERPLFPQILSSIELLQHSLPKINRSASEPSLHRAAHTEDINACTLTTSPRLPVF

[37] = target: SIK2 (Homo sapiens (Human), UniProt Q9H0K1); assay: KINOMEscan binding assay; conditions: percent of control
[38] = target: TNIK (Homo sapiens (Human), UniProt Q9UKE5); assay: KINOMEscan binding assay; conditions: percent of control
[39] = target: TRKC (Homo sapiens (Human), UniProt Q16288); assay: KINOMEscan binding assay; conditions: percent of control
[40] = tested on: panel of 57 kinases; conditions: 10 μM; S(35) criterion

MEK3, sequence (P46734 whole entry, canonical isoform): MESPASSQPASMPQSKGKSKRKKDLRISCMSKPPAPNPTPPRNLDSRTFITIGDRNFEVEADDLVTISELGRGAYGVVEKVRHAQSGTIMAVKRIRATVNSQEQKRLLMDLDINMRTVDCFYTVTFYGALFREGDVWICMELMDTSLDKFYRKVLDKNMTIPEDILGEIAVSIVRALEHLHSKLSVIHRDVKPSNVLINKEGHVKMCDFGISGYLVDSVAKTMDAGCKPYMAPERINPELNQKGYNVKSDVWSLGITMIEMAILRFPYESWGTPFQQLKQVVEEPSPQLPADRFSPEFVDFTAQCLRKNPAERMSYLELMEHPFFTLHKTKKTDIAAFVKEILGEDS
MEK1, sequence (Q02750 whole entry, canonical isoform): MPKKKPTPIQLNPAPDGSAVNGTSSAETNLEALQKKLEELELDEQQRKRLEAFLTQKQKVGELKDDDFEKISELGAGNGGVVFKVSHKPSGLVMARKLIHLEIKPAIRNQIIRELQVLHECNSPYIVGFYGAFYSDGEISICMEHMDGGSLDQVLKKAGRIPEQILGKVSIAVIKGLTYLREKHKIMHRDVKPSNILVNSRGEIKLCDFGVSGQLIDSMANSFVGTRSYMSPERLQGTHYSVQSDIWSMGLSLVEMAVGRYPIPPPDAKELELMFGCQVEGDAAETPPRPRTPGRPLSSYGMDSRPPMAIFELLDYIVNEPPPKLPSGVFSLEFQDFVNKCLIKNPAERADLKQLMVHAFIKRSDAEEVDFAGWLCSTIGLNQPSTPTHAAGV

O=C(O)c1cccc(-c2n[nH]c3ccccc23)c1 [Compound 6a, 3-(1H-indazol-3-yl)benzoic Acid]
IC50 [1]: 12 µM | IC50 [2]: 16 µM | IC50 [3]: > 27 µM | IC50 [4]: 10 µM | % Ctrl @ 10000 nM [5]: 87 % Ctrl | % Ctrl @ 10000 nM [6]: 40 % Ctrl | % Ctrl @ 10000 nM [7]: 86 % Ctrl | % Ctrl @ 10000 nM [8]: 59 % Ctrl | % Ctrl @ 10000 nM [9]: 95 % Ctrl | % Ctrl @ 10000 nM [10]: 76 % Ctrl | % Ctrl @ 10000 nM [11]: 80 % Ctrl | % Ctrl @ 10000 nM [12]: 0.75 % Ctrl | % Ctrl @ 10000 nM [13]: 100 % Ctrl | % Ctrl @ 10000 nM [14]: 85 % Ctrl | % Ctrl @ 10000 nM [15]: 92 % Ctrl | % Ctrl @ 10000 nM [16]: 89 % Ctrl | % Ctrl @ 10000 nM [17]: 100 % Ctrl | % Ctrl @ 10000 nM [18]: 43 % Ctrl | % Ctrl @ 10000 nM [19]: 50 % Ctrl | % Ctrl @ 10000 nM [20]: 48 % Ctrl | % Ctrl @ 10000 nM [21]: 59 % Ctrl | % Ctrl @ 10000 nM [22]: 97 % Ctrl | % Ctrl @ 10000 nM [23]: 60 % Ctrl | % Ctrl @ 10000 nM [24]: 88 % Ctrl | % Ctrl @ 10000 nM [25]: 91 % Ctrl | % Ctrl @ 10000 nM [26]: 66 % Ctrl | % Ctrl @ 10000 nM [27]: 66 % Ctrl | % Ctrl @ 10000 nM [28]: 100 % Ctrl | % Ctrl @ 10000 nM [29]: 95 % Ctrl | % Ctrl @ 10000 nM [30]: 100 % Ctrl | % Ctrl @ 10000 nM [31]: 97 % Ctrl | % Ctrl @ 10000 nM [32]: 98 % Ctrl | % Ctrl @ 10000 nM [33]: 0 % Ctrl | % Ctrl @ 10000 nM [34]: 100 % Ctrl | % Ctrl @ 10000 nM [35]: 100 % Ctrl | % Ctrl @ 10000 nM [36]: 100 % Ctrl | % Ctrl @ 10000 nM [37]: 93 % Ctrl | % Ctrl @ 10000 nM [38]: 65 % Ctrl | % Ctrl @ 10000 nM [39]: 39 % Ctrl | number of kinases hit, out of 57 tested [40]: 5

O=C(O)c1ccc(-c2n[nH]c3cc(F)ccc23)cc1 [Compound 6ff, 4-(6-fluoro-2H-indazol-3-yl)benzoic Acid]
IC50 [1]: 15 µM | IC50 [2]: > 27 µM | IC50 [3]: > 27 µM | IC50 [4]: 11 µM | % Ctrl @ 10000 nM [5]: 55 % Ctrl | % Ctrl @ 10000 nM [6]: 12 % Ctrl | % Ctrl @ 10000 nM [7]: 73 % Ctrl | % Ctrl @ 10000 nM [8]: 61 % Ctrl | % Ctrl @ 10000 nM [9]: 98 % Ctrl | % Ctrl @ 10000 nM [10]: 39 % Ctrl | % Ctrl @ 10000 nM [11]: 90 % Ctrl | % Ctrl @ 10000 nM [12]: 0 % Ctrl | % Ctrl @ 10000 nM [13]: 100 % Ctrl | % Ctrl @ 10000 nM [14]: 81 % Ctrl | % Ctrl @ 10000 nM [15]: 100 % Ctrl | % Ctrl @ 10000 nM [16]: 100 % Ctrl | % Ctrl @ 10000 nM [17]: 99 % Ctrl | % Ctrl @ 10000 nM [18]: 26 % Ctrl | % Ctrl @ 10000 nM [19]: 14 % Ctrl | % Ctrl @ 10000 nM [20]: 43 % Ctrl | % Ctrl @ 10000 nM [21]: 11 % Ctrl | % Ctrl @ 10000 nM [22]: 86 % Ctrl | % Ctrl @ 10000 nM [23]: 61 % Ctrl | % Ctrl @ 10000 nM [24]: 44 % Ctrl | % Ctrl @ 10000 nM [25]: 78 % Ctrl | % Ctrl @ 10000 nM [26]: 52 % Ctrl | % Ctrl @ 10000 nM [27]: 43 % Ctrl | % Ctrl @ 10000 nM [28]: 95 % Ctrl | % Ctrl @ 10000 nM [29]: 89 % Ctrl | % Ctrl @ 10000 nM [30]: 65 % Ctrl | % Ctrl @ 10000 nM [31]: 99 % Ctrl | % Ctrl @ 10000 nM [32]: 89 % Ctrl | % Ctrl @ 10000 nM [33]: 28 % Ctrl | % Ctrl @ 10000 nM [34]: 95 % Ctrl | % Ctrl @ 10000 nM [35]: 100 % Ctrl | % Ctrl @ 10000 nM [36]: 100 % Ctrl | % Ctrl @ 10000 nM [37]: 100 % Ctrl | % Ctrl @ 10000 nM [38]: 3.6 % Ctrl | % Ctrl @ 10000 nM [39]: 11 % Ctrl | number of kinases hit, out of 57 tested [40]: 12
